Experimental data as given in patent publication US20030004165A1, “Polyazanaphthalene compounds and pharmaceutical use thereof” (AJINOMOTO CO. INC, priority 1999, published 2003).

Assays:
[1] = test system: TNF α production by Balb/c mouse peritoneal cells; assay: Inhibition of LPS-induced TNF α production from mouse peritoneal cells; type: cell-based; conditions: LPS 10 μg/ml stimulation, 16 to 18 hours, TNF α by sandwich ELISA
Experimental: Evaluation of Inhibiting Production of Tumor Necrosis Factors (TNF)
RPMI medium was injected into a peritoneal cavity of Balb/c mouse (Charles River Japan, Inc.) and the peritoneal cells were collected. The peritoneal cells were seeded on a 96-well plate in a concentration of 1×10^4 cells/well. 30 minutes after the addition of the subject pharmaceutical compounds in a proper concentration, LPS (sigma, L-5886) was added to each well so as to obtain the final concentration of 10 μg/ml. After culturing overnight (16 to 18 hours) again, a culture fluid was collected and the amount of TNF α in the culture fluid was determined. Mouse TNF α was determined by the means of a sandwitch ELISA and anti-mouse TNF a hamster monoclonal antibody (Genzyme 1221-00) was used as the first antibody, anti-mouse TNF α rabbit polyclonal antibody (Genzyme, IP-400) as the second antibody, and alkaliphosphatase conjugate anti-rabbit IgG polyclonal goat antibody as the third antibody. Then, optical absorbance of alkaliphosphatase substrate (p-nitrophosphate) was determined and converted into the production amount. When no stimulation was seen, the production amount was defined as 0% and when only […] stimulation was seen, the amount was defined as 100%.

[2] = test system: MMP-3 (stromelysin-1) production by human joint normal synovial interstitial cells; assay: Inhibition of IL-1β-induced MMP-3 production from synovial cells; type: cell-based; conditions: IL-1β 0.5 ng/ml stimulation, 16 to 18 hours, MMP-3 in culture fluid
Experimental: Evaluation of Inhibiting Production of Matrix Metalloprotease (MMP) Collected From Synovial Cells
The human joint normal synovial interstitial cells (cell System-SS cells, Dainippon Pharmaceutical Co., Ltd.) were seeded on a 96-well plate in a concentration of 1×10^4 cells/well and cultured overnight. 30 minutes after the addition of the subject pharmaceutical compounds in a proper concentration, IL-1β was added to each well so as to obtain the final concentration of 0.5 ng/ml. After culturing overnight (16 to 18 hours) again, a culture fluid was collected and the amount of MMP-3 (stromelysin-1) in the culture fluid was determined. MMP-3 was determined with a test kit for determining stromelysin-1 (SL) in serum (Fuji Chemical Industries Ltd.), in accordance with an instruction book attached to the kit. When no stimulation was seen, the production amount was defined as 0% and when only […] stimulation was seen, the amount was defined as 100%.

| TNF Inhibition Activity (IC50) [1] [µg/mL] | SMILES | MMP Inhibition Activity (IC50) [2] [µg/mL] |
| --- | --- | --- |
| 0.01 | COc1ccc(-c2cnc3ccncc3c2)cc1OC1CCCC1 [Example 26, 3-(3-Cyclopentyloxy-4-Methoxyphenyl)-1,6-Naphthylidine] | – |
| 0.3 | COc1ccc(-c2cnc3ccnc(N)c3c2)cc1OC [Example 20, 5-Amino-3-(3,4-Dimethoxyphenyl)-1,6-Naphthylidine] | 0.16 |
| 0.02 | COc1ccc(-c2cnc3cnccc3c2)cc1OC [Example 22, 3-(3,4-Dimethoxyphenyl)-1,7-Naphthylidine] | 1.25 |
| 0.6 | COc1ccc(-c2ccc3cnccc3n2)cc1OC [Example 24, 2-(3,4-Dimethoxyphenyl)-1,6-Naphthylidine] | 1.25 |
| 0.1 | COc1ccc(-c2cnc3ncccc3c2)cc1OC [Example 23, 3-(3,4-Dimethoxyphenyl)-1,8-Naphthylidine] | – |
| 1 | COc1ccc(-c2cnc3ccnc(Cl)c3c2)cc1OC [Example 19, 5-Chloro-3-(3,4-Dimethoxyphenyl)-1,6-Naphthylidine] | – |
| 0.6 | COc1ccc(-c2cnc3cc(N)ncc3c2)cc1OC.Cl [Example 18, 7-Amino-3-(3,4-Dimethoxyphenyl)-1,6-Naphthylidine Hydrochloride] | 0.31 |

| SMILES | TNF Inhibition Activity (IC50) [1] [µg/mL] | MMP Inhibition Activity (IC50) [2] [µg/mL] |
| --- | --- | --- |
| COc1ccc(-c2cnc3ccncc3c2)cc1OC [Example 1, 3-(3,4-Dimethoxyphenyl)-1,6-Naphtylidine] | 0.5 | 1.25 |
